# Experiments:
# [1] = system: BJ-hTert, RKO (colon carcinoma), U2OS (osteosarcoma) cell lines; assay: Clonogenic outgrowth of additional cell lines; type: cell-based; conditions: 6 days after treatment + 400 nm irradiation for 5 min
# Procedure: (§1) FIG. 3: Functional p53 induction upon λ=400 nm irradiation in PPG-idasanutlin treated cells, a) RPE-1 cells were treated with indicated compounds (all 10 μM final) and fixed 4 h after 5 min (−/+400 nm) irradiation. Anti-p53 staining indicates p53 protein expression in the nucleus. […] Error bars represent mean +sd, ****P<0.0001 (unpaired t-test), Dots represent individual cells, n>125 cells per condition combined from 2 independent experiments. c) Representative western blot showing p53 protein levels in cells 4 h after addition of DMSO or PPG-idasanutlin and irradiation for indicated time periods. Hsp90 is used as a loading control. d) Selective outgrowth disadvantage in RPE-1 cells 6 days after PPG-idasanutlin treatment +400 nm irradiation for 5 min. e) Representative Western blot showing p53 protein levels in three cell lines (U2OS, RKO, BJhTert) 4 h after indicated treatments. f) Selective outgrowth inhibition in indicated cell lines 6 days after PPG-idasanutlin treatment +400 nm irradiation for 5 min. In all the experiments <1% DMSO was used.
# (§2) Cells were plated at equal amounts (1000 cells per well) in a 24-wells plate followed by indicated treatments −/+irradiation (400 nm for 5 min) 24 h later. Cells were cultured under normal cell culture conditions for 6 days to allow colony outgrowth. Plates were fixed using 99.8% ice-cold methanol (Honeywell) for 10 min at RT. […]
# p53-venus in RPE-1 cells = assay: Live-cell imaging of nuclear p53-venus signal after single-cell laser irradiation; type: cell-based
# Procedure: (§3) FIG. 5: Spatiotemporal control of PPG-idasanutlin. a) Schematic representation of microwell set-up for laser irradiation of individual RPE-1 cells to activate PPG-idasanutlin. Laser target area (represented. by red circle) for single pulse (0.1 sec irradiation at 5 um interspaced position) indicated with scale. Individual irradiated cells followed by measuring nuclear p53-venus levels (fluorescence) every 15 min for 3 h after laser irradiation. Approximately 200 cells in each microwell. b) Percentage of cells that divide within 8 h after indicated treatments. Mean±sem of three independent experiments. Error bars indicate 95% confidence intervals. c, d) p53-venus fluorescent signal in individual RPE-1 cells tracked over time after indicated treatments as represented in (a). Line-graphs represent mean of individual cells. n>42 cells per condition pooled from three independent experiments. ***p<0.005, ****p<0.0001 significance in 2-way anova interaction score.
# For live cell imaging, cells were grown in picovitro microwells covered by a silicon membrane^4 in Leibovitz's L-15 (Gibco) CO2-independent medium supplemented with ultraglutamine, penicillin/streptomycin and 10% fetal calf serum. Images for both fixed slides and live cell imaging were obtained using a Delta Vision Elite (applied precision) equipped with a 60× 1.6 NA or 10× 0.75 NA lens (Olympus) and cooled CoolSnap CCD camera. Directed laser irradiation was performed using a brief (0.1 s) pulse of a 405 nm laser on the Delta Vision Elite microscope equipped with a X4 laser module (Applied Precision). Image analysis was done using ImageJ software. […]
# Using RPE-1 cells that stably expressed a venus-tagged version of p53 (p53-venus), p53 protein accumulation could be tracked with high time-resolution in individual cells by live-cell microscopy. […] To determine the functionality of the high spatiotemporal control obtained in this set-up, cell cycle progression was monitored in single cells following laser activation of PPG-idasanutlin (photorelease of idasanutlin). […]
# RPE-1 p53-venus cells = assay: Live-cell imaging of cell division after single-cell laser irradiation; type: cell-based; conditions: RPE-1 p53-venus cells irradiated with 405 nm laser (0.1 s pulse) after treatment
# Procedure: as §3, with “score. […]” for “score.”
# Using RPE-1 cells that stably expressed a venus-tagged version of p53 (p53-venus), p53 protein accumulation could be tracked with high time-resolution in individual cells by live-cell microscopy. […] To determine the functionality of the high spatiotemporal control obtained in this set-up, cell cycle progression was monitored in single cells following laser activation of PPG-idasanutlin (photorelease of idasanutlin).
# [2] = Spontaneous hydrolysis in buffer; type: physicochemical; conditions: buffer at room temperature (data not shown)
# Procedure: (§4) Following the synthesis of PPG-idasanutlin as described in Example 1, its photochemical behavior under physiological conditions was investigated, UV-vis spectroscopy and UPLC-MS measurements were performed in aqueous buffer at pH=7.0. […] Moreover, no significant spontaneous hydrolysis of PPG-idasanutlin for >24 h in buffer at room temperature was observed (data not shown).
# [3] = system: p53 in BJ-hTert, RKO (colon carcinoma), U2OS (osteosarcoma) cell lines; assay: p53 protein levels (western blot) in additional cell lines; type: cell-based; conditions: U2OS (all cell lines tested), after light irradiation, 4 h
# Procedure: as §1
# RPE-1 cells were plated at equal density in 6-well plates followed by indicated treatments −/+irradiation (400 nm for 5 min) 24 h later. Cells were fixed and collected 4 h after treatment by wash out of the medium, single wash in 1× PBS followed by addition of laemmli buffer (4% SDS, 20% glycerol and 0.125 M Tris HCl). […]
# [4] = system: p53 protein level in RPE-1 cells; assay: Immunofluorescent staining of nuclear p53 protein in RPE-1 cells; type: cell-based; conditions: for nuclear p53 protein levels: 4 h after addition, regardless of irradiation with 400 nm light
# Procedure: as §1
# RPE-1 cells were plated on coverslips at equal density and treated with indicated drugs before −/+irradiation (400 nm for 5 min). For immune fluorescent staining, cells were fixed 4 h after irradiation by wash out of the medium, single wash in phosphate-buffered saline (1× PBS) and incubation in 3.7% formaldehyde for 5 min. Next, fixed cells were permeabilized with 0.2% TritonX in 1× PBS for 5 min before blocking in 3% […] (BSA) in 1× PBS supplemented with 0.1% Tween (PBST) for 1 h (all at room temperature (RT)). Cells were incubated overnight at 4° C. with primary antibody in PBST with 3% BSA, washed three times with PBST, and incubated with secondary antibody and DAPI in PBST with 3% BSA for 2 h at RT. After a final three time wash with PBST coverslips were mounted on microscopic analysis slides using ProLong Gold antifade reagent (Thermo Fisher). The following antibodies were used: anti-p53 (sc-126, Santa Cruz, 1/1000), phalloidin (A12380, Molecular Probes, 1/1000) and goat anti-mouse/Alexa. 488 (A11029, Molecular Probes, 1/1000).
# Next, the biological activity of PPG-idasanutlin was investigated. Initial studies aimed at confirming a difference in p53 activation upon λ=400 nm light exposure after addition of the protected idasanutlin derivative (PPG-idasanutlin). To that end, non-transformed, p53-proficient retinal pigment epithelial cells (RPE-1) were treated with either DMSO (control), nutlin-3, idasanutlin or PPG-idasanutlin, followed by −/+irradiation with 400 nm light (FIG. 3).
# [5] = system: p53 protein level in RPE-1 cells; assay: p53 protein levels (western blot) in RPE-1 cells, dose-response; type: cell-based; conditions: increasing duration of 400 nm irradiation and varying doses, 4 h
# Procedure: as §1, with “used. […]” for “used.”
# To examine the level of control over the dose-response of idasanutlin (employing PPG-idasanutlin), p53 protein levels in RPE-1 cells were determined by immunostaining after both increasing duration of 400 nm light irradiation and varying doses of PPG-idasanutlin (FIG. 3.c).
# [6] = Photochemical behavior (photocleavage) by UV-vis spectroscopy and UPLC-MS in aqueous buffer; type: physicochemical; conditions: λ=400 nm light, aqueous buffer pH=7.0
# Procedure: Thin Layer Chromatography (TLC) was performed using commercial Kieselgel 60, F254 silica gel plates with fluorescence-indicator UV254 (Merck, TLC silica gel 60 F254). For detection of components, UV light at λ=254 nm or λ=365 nm was used. Alternatively, oxidative staining using aqueous basic potassium permanganate solution (KMnO4) or aqueous acidic cerium phosphomolybdic acid solution (Seebach's stain) was used. Flash chromatography was performed on silica gel (Silicycle Siliaflash P60, […], 230-400 mesh). Drying of solutions was performed with MgSO4 and volatiles were removed with a rotary evaporator. Nuclear Magnetic Resonance spectra were measured with an Agilent Technologies 400-MR (400/54 Premium Shielded) spectrometer (400 MHz). All spectra were measured at room temperature (22-24° C.). Chemical shifts for ^1H- and ^13C-NMR measurements were determined relative to the residual solvent peaks in ppm (δH 7.26 for CHCl3, 2.50 for DMSO and 2.05 ppm for Acetone, δC 77.16 for CHCl3 and 39.52 for DMSO). The following abbreviations are used to indicate signal multiplicity: s, singlet; d, doublet; t, triplet; q, quartet; m, multiplet; brs, broad signal. All ^13C-NMR spectra are ^1H-broadband decoupled. High-resolution mass spectrometric measurements were performed on a Thermo scientific LTQ Orbitrap XL with ESI ionization. For spectroscopic measurements, solutions in Uvasol® grade solvents were measured in a 10 mm quartz cuvette. UV-Vis absorption spectra were recorded on an Agilent 8453 UV-Visible absorption Spectrophotometer.
# as §4
# RPE-1 cells = assay: Clonogenic outgrowth of RPE-1 cells; type: cell-based; conditions: 6 days
# Procedure: as §1, §2
# cellular outgrowth = assay: Cell outgrowth experiments with PPG photoproduct; type: cell-based; conditions: photoproduct formed upon photocleavage of photonutlin
# Procedure: Cells were plated at equal amounts (1000 cells per well) in a 24-wells plate followed by indicated treatments −/+irradiation (400 nm for 5 min) 24 h later. Cells were cultured under normal cell culture conditions for 6 days to allow colony outgrowth. Plates were fixed using 99.8% ice-cold methanol (Honeywell) for 10 min at RT. After a 1 time wash in H2O, cells were incubated in 0.2% crystal violet (Sigma) in H2O for at least 3 h at RT to stain cellular outgrowth.
structure (smiles),measurement,setting,value
"CCN(CC)c1ccc2c(C(C)OC(=O)c3ccc(NC(=O)[C@@H]4N[C@@H](CC(C)(C)C)[C@](C#N)(c5ccc(Cl)cc5F)[C@H]4c4cccc(Cl)c4F)c(OC)c3)cc(=O)oc2c1 (stereo partly drawn) [PPG-idasanutlin, 1-(7-(diethylamino)-2-oxo-2H-chromen-4-yl)ethyl 4-((2R,3S,4R,5S)-3-(3-chloro-2-fluorophenyl)-4-(4-chloro-2-fluorophenyl)-4-cyano-5-neopentylpyrrolidine-2-carboxamido)-3-methoxybenzoate]",cellular outgrowth,[1],dramatic reduction
same,nuclear p53-venus signal,p53-venus in RPE-1 cells; neighbouring cells not irradiated by the 405 nm laser,significantly lesser extent
same,nuclear p53-venus signal,p53-venus in RPE-1 cells; non-irradiated cells from adjacent wells at micrometer distance,completely absent
same,nuclear p53-venus signal,"p53-venus in RPE-1 cells; single cells irradiated with 405 nm laser, 15 min intervals",selective stabilization
same,percentage of cells that divide within 8 h,RPE-1 p53-venus cells,strongly drops
same,time without significant spontaneous hydrolysis,[2],> 24 h
same,stabilization of p53,[3],Selective stabilization
same,p53 protein level,"[4]; 10 μM, irradiated with 400 nm light (5 min), fixed 4 h after",significant increase
same,p53 stabilization,[4]; without 400 nm irradiation,no functional effect
same,accumulation of p53 protein,[5],clear dose-response dependent accumulation
same,irradiation time for major photorelease of idasanutlin,[6],≤ 5 min
same,products observed upon photodeprotection,[6],solely the formation of idasanutlin and hydroxycoumarin
same,quantum yield of photocleavage,[6],0.1%
same,colony outgrowth,RPE-1 cells; after irradiation with 400 nm for 5 min,selectively blocked
same,colony outgrowth (growth inhibition),RPE-1 cells; without 400 nm irradiation,did not show any growth inhibition
"CCN(CC)c1ccc2c(C(C)O)cc(=O)oc2c1 (stereo not drawn) [PPG 6, 7-(diethylamino)-4-(1-hydroxyethyl)-2H-chromen-2-one]",cellular outgrowth,cellular outgrowth,does not perturb
"COc1cc(C(=O)O)ccc1NC(=O)[C@@H]1N[C@@H](CC(C)(C)C)[C@](C#N)(c2ccc(Cl)cc2F)[C@H]1c1cccc(Cl)c1F [idasanutlin, 4-((2R,3S,4R,5S)-3-(3-chloro-2-fluorophenyl)-4-(4-chloro-2-fluorophenyl)-4-cyano-5-neopentylpyrrolidine-2-carboxamido)-3-methoxybenzoic acid, reference compound]",nuclear p53 protein levels,[4]; 10 μM,significant increase
"COc1ccc(C2=N[C@@H](c3ccc(Cl)cc3)[C@@H](c3ccc(Cl)cc3)N2C(=O)N2CCNC(=O)C2)c(OC(C)C)c1 [nutlin-3, reference compound]",nuclear p53 protein levels,[4]; 10 μM,significant increase

# Source: patent publication US11981664B2, “Photoresponsive nutlin derivatives and uses thereof” (Rijksuniversiteit Groningen, priority 2018, dated 2024)
